Assay results as given in PubChem BioAssay AID651817 (Broad Institute, 2012).
Calls of active or inactive are those of the source.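 The calls were made as follows: active = compound whose fitted luminescence drop, meaning cytotoxicity, reaches half effect at most twice its top valid tested dose; inconclusive = flat curve with a moderate drop, or an unreliable fit; inactive = rise instead of drop, flat response, or weaker potency.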

tested on: not listed separately; experiment: NIH/3T3 fibroblast cytotoxicity, dose response, cytotoxicity control for T. cruzi growth inhibitor project, cell-based, cherry-pick samples, set 2 (AID 651817); conditions: NIH/3T3 viability, ATP luminescence (CellTiter-Glo), 90 h; at 19.5 µM (top of the series)

Question: With `C[C@H](CO)N1C[C@H](C)[C@@H](CN(C)S(=O)(=O)c2ccc(Cl)cc2)Oc2ccc(NS(=O)(=O)c3ccc(Cl)cc3)cc2CC1=O` as the compound, how does the activity change, negative = cytotoxicity read?
Answer: -32.5% (inactive)

Question: With `C[C@@H]1CN([C@H](C)CO)C(=O)c2cccc(NC(=O)c3ccncc3)c2O[C@@H]1CN(C)Cc1ccc(Oc2ccccc2)cc1` as the compound, how does the activity change, negative = cytotoxicity read?
Answer: 14.7% (inactive)

Question: Which activity change, negative = cytotoxicity does the source give for `C[C@H](CO)N1C[C@H](C)[C@@H](CN(C)S(=O)(=O)c2ccccc2)Oc2c(NC(=O)c3nc4ccccc4s3)cccc2C1=O` here?
Answer: -18.8% (inactive)

Question: With `Cc1ccc(S(=O)(=O)Nc2ccc3c(c2)CC(=O)N([C@H](C)CO)C[C@H](C)[C@H](CN(C)Cc2ccc(Cl)c(Cl)c2)O3)cc1` as the compound, how does the activity change, negative = cytotoxicity read?
Answer: -1.7% (inactive)

Question: Which activity change, negative = cytotoxicity does the source give for `C[C@@H]1CN([C@@H](C)CO)C(=O)c2cccc(NC(=O)c3ccncc3)c2O[C@H]1CN(C)CC1CC1` here?
Answer: -16.5% (inactive)

Question: Which activity change, negative = cytotoxicity does the source give for `C[C@H](CO)N1C[C@H](C)[C@H](CN(C)S(=O)(=O)c2ccc(Cl)cc2)Oc2ccc(NS(=O)(=O)c3ccc(Cl)cc3)cc2CC1=O` here?
Answer: 7.06% (inactive)

Question: With `C[C@@H]1CN([C@H](C)CO)C(=O)Cc2cc(NS(=O)(=O)c3ccc(Cl)cc3)ccc2O[C@H]1CN(C)Cc1ccc2c(c1)OCO2` as the compound, how does the activity change, negative = cytotoxicity read?
Answer: -22% (inactive)

Question: For `Cc1ccc(S(=O)(=O)Nc2ccc3c(c2)CC(=O)N([C@H](C)CO)C[C@@H](C)[C@H](CN(C)Cc2ccc4c(c2)OCO4)O3)cc1`, which activity change, negative = cytotoxicity is on record?
Answer: 11% (inactive)

Question: For `Cc1ccc(S(=O)(=O)N(C)C[C@H]2Oc3c(NC(=O)c4nc5ccccc5s4)cccc3C(=O)N([C@H](C)CO)C[C@@H]2C)cc1`, which activity change, negative = cytotoxicity is on record?
Answer: -6.91% (inactive)

Question: For `Cc1noc(C)c1NC(=O)Nc1cccc2c1O[C@H](CN(C)S(C)(=O)=O)[C@@H](C)CN([C@H](C)CO)C2=O`, which activity change, negative = cytotoxicity is on record?
Answer: 2.45% (inactive)

Question: Which activity change, negative = cytotoxicity does the source give for `C[C@@H]1CN([C@H](C)CO)C(=O)c2cccc(NC(=O)c3ccncc3)c2O[C@H]1CN(C)CC1CC1` here?
Answer: -26.2% (inactive)

same assay, conditions: NIH/3T3 viability, ATP luminescence (CellTiter-Glo), 90 h; at 21 µM (top of the series)

Question: Which activity change, negative = cytotoxicity does the source give for `C[C@H]1CN([C@@H](C)CO)C(=O)c2cccc(NC(=O)c3ccncc3)c2O[C@H]1CN(C)Cc1ccc2c(c1)OCO2` here?
Answer: 4.17% (inactive)

Question: Which activity change, negative = cytotoxicity does the source give for `C[C@@H]1CN([C@@H](C)CO)C(=O)c2cccc(NC(=O)c3ccncc3)c2O[C@@H]1CN(C)Cc1ccc2c(c1)OCO2` here?
Answer: -12.5% (inactive)

Question: Which activity change, negative = cytotoxicity does the source give for `Cc1ccc(S(=O)(=O)N(C)C[C@@H]2Oc3ccc(NS(=O)(=O)c4ccc(Cl)cc4)cc3CC(=O)N([C@@H](C)CO)C[C@@H]2C)cc1` here?
Answer: 11.5% (inactive)

Question: With `C[C@@H]1CN([C@H](C)CO)C(=O)c2cccc(NC(=O)c3ccncc3)c2O[C@H]1CN(C)Cc1ccc(C(F)(F)F)cc1` as the compound, how does the activity change, negative = cytotoxicity read?
Answer: -18.8% (inactive)

tested on: NIH/3T3 viability, ATP luminescence (CellTiter-Glo), 90 h; experiment: as above; conditions: not given

Question: For `C[C@@H]1CN([C@@H](C)CO)C(=O)c2cccc(NC(=O)c3ccncc3)c2O[C@H]1CN(C)Cc1ccc(Oc2ccccc2)cc1`, which AC50 is on record?
Answer: 20.5 µM
